Measurements from patent publication US20260083698A1, “Synergistic Stimulation of Mucociliary Clearance to Treat Mucus Obstruction in Cystic Fibrosis and Other Muco-Obstructive Disorders” (The Board of Trustees of the Leland Stanford Junior …, priority 2022, published 2026).

Legend:
[1] = test system: CF ferret (CFTRKO/KO) tracheal glands; assay: Optical measurement of glandular mucus secretion rate, CF ferret; settings: 10 mM forskolin, 0.3 mM carbachol, one ferret per order of addition
Description: Synergistic glandular mucus secretion in WT pigs, WT ferrets, and CF ferrets. Synergistic increases in MCCV rely partly on increased mucus secretion from submucosal glands. This hypothesis arises from evidence that combinations of [Ca^2+]i-elevating and [cAMP]i-elevating agonists produce synergistically elevated rates of mucus from submucosal glands of humans (22), pigs (24), and ferrets (21). However, in those experiments different specific concentrations of agonists were used. To determine if the same protocols used here produced synergistic increases in secretion from submucosal glands, mucus secretion rates of individual tracheal glands in WT pigs and ferrets and in CF ferrets were measured via time-lapse optical imaging (28) while stimulating them with the same concentrations of agonists and durations of exposure used for MCCV studies. All secretion rates are reported as nanoliters/min/gland. […] Only two CF ferrets were able to be tested (FIG. 3G-I). […] Unstimulated secretion rates were zero, as in WT ferrets. […] The averaged secretion rate across both ferrets to the combined agonists was 1.27±0.15,which is 2.8 times the arithmetic sum of the two agonists used alone, and about half of the response of WT ferrets of 2.46±0.39 (16). Airway tissue procurement. […] Stored images were analyzed by direct measurement or with ImageJ software (V. 1.50i, https://imagej.nih.gov/ij/, NIH, MD/USA).

CF ferret tracheas = assay: Mucociliary clearance velocity (MCCV) in ex vivo CF ferret tracheas; settings: for MCCV: 10 μM forskolin, 0.3 μM carbachol, average of last 20 min of single drug period, 10 to 80 min after adding the combined agonists; for CF ferret MCCV response compared to WT ferrets: CF vs WT ferret (WT from ref 16)
Protocol: Synergistic increases of MCCV in CF ferrets and WT pigs. […] To determine if synergistic increases of MCCV could be produced in CF ferret tracheas, tracheas from 7 transgenic adult CF ferrets of mixed genotype were tested (see “Methods” section). […] SR, synergy response by the combined agonists: 19.95±4.12, (P=0.006 SR vs. Sum). Airway tissue procurement. CF ferret tissues. […] These ferrets were raised on the CFTR modulator VX770. […] Two […]/KO ferret tracheas were used for the tracheal, single gland mucus secretion rate assay. […] All isolated CF ferret tracheal trims (2-3 cm in length) were placed in DMEM culture medium immediately after euthanasia and shipped from the University of Iowa via overnight priority express. MCCV measurement. Details are in the previous reports (16,59,60). Briefly, each whole length ferret or piglet trachea, or a CF tracheal trim, was cut open along the mid-dorsal line and mounted mucosal side up onto a Sylgard elastomer platform. For pig experiments, tracheas from newborn piglets were used because tracheas from adult pigs that had been subjected to acute experiments, our source for submucosal gland experiment, had erratic MCC velocities due to epithelial damage secondary to intubation. […] Drugs were added by bath replacement with pre-warmed bath+drug(s).

[2] = test system: WT ferret tracheal glands; assay: Optical measurement of glandular mucus secretion rate, WT ferret
Description: Synergistic glandular mucus secretion in WT pigs, WT ferrets, and CF ferrets. Synergistic increases in MCCV rely partly on increased mucus secretion from submucosal glands. This hypothesis arises from evidence that combinations of [Ca^2+]i-elevating and [cAMP]i-elevating agonists produce synergistically elevated rates of mucus from submucosal glands of humans (22), pigs (24), and ferrets (21). However, in those experiments different specific concentrations of agonists were used. To determine if the same protocols used here produced synergistic increases in secretion from submucosal glands, mucus secretion rates of individual tracheal glands in WT pigs and ferrets and in CF ferrets were measured via time-lapse optical imaging (28) while stimulating them with the same concentrations of agonists and durations of exposure used for MCCV studies. All secretion rates are reported as nanoliters/min/gland. WT Ferrets gave similar results (FIG. 3D-F). […] Data for individual WT control ferrets is shown in FIG. 3E for forskolin first and in FIG. 3F for carbachol first. Optical measurement of glandular mucus secretion rate. Details are in the previous report (28). […] Stored images were analyzed by direct measurement or with ImageJ software (V. 1.50i, https://imagej.nih.gov/ij/, NIH, MD/USA).

Row | Structure (SMILES) | average gland mucus secretion rate, single ferret [1] [nanoliters/min/gland] | MCCV (CF ferret tracheas; CF ferret tracheas) [mm/min] | effect on MCCV (CF ferret tracheas; CF ferret tracheas, single agonist, 30 min) | CF ferret MCCV response compared to WT ferrets (CF ferret tracheas) [%] | averaged MCCV of T10-30 to 0.3 μM carbachol in ferret (E) relative to ferrets (A) and (C) (CF ferret tracheas; individual CF ferrets, FIG. 7) | gland mucus secretion rate [2] [nanoliters/min/gland]
1 | C[N+](C)(C)CCOC(N)=O [carbachol] | 0.45±0.16 | 3.29±2.08 | only a small increase | ~40 | less than 5% | 0.94±0.28
2 | C=C[C@@]1(C)CC(=O)[C@]2(O)[C@@]3(C)[C@@H](O)CCC(C)(C)[C@@H]3[C@H](O)[C@H](OC(C)=O)[C@@]2(C)O1 [forskolin] | 0.01 | 0.18±0.09 | – | ~0 | – | 0.26±0.07
